# Assay results from patent US9737505B2, “Prodrug of 1,1′-(1,6-dioxo-1,6-hexanediyl)bis-D-proline” (GlaxoSmithKline Intellectual Property Development Limited, priority 2014, dated 2017).
# Where two headings read alike, the source gives them in different places.
# Tests used:
# [1] = molecular target: T1, SAP (Homo sapiens, UniProt P02743); settings: systemic amyloidosis patients, for as long as the drug was administered; cited from earlier work
# T1 construct: Depletion of plasma SAP by CPHPC, from the normal 20-50 mg/L to <0.1 mg/L; host or cells: circulating SAP in plasma and CSF of patients
# T1 sequence (P02743 20-223): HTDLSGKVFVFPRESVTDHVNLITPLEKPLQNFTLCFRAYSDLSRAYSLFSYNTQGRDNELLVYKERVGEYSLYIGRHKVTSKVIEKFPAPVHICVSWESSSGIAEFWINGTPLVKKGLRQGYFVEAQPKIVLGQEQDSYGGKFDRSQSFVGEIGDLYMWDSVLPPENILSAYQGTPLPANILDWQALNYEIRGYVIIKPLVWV
# [2] = molecular target: T1, SAP; settings: patients with Alzheimer's disease, cited from earlier work
# [3] = very low and variable; cited from earlier work
# [4] = molecular target: T2, CYP2C9 (Homo sapiens, UniProt P11712); test: Cytochrome p450 inhibition assay (bactosomes, fluorogenic substrate FCA); assay type: biochemical; settings: recombinant human CYP (Cypex bactosomes)
# T2 construct: purchased Cypex; host or cells: bactosomes (bacterial membranes)
# T2 sequence (P11712 whole entry): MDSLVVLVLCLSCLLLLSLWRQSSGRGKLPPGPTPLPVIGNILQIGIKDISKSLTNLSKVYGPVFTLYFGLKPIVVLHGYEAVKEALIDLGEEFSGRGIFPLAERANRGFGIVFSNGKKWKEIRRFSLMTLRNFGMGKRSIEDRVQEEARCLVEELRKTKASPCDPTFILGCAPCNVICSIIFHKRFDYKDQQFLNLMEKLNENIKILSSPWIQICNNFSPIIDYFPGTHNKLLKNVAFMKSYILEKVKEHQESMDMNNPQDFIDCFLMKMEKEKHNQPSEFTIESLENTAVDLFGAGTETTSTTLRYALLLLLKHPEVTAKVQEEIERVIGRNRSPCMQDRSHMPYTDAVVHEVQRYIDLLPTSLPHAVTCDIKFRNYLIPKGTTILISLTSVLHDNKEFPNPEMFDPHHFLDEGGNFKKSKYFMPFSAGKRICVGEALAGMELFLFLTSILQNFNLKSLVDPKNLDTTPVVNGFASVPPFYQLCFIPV
# Procedure: (§1) The assay was designed to evaluate inhibition on cytochrome P450 (CYP) 3A4, 2C9, 2C19, 1A2 and 2D6 enzymes from bactosomes source using fluorogenic substrates. Compound (compound of Formula (I) or Comparator Compound) was dissolved in methanol at 1.65 mM. Daughter solutions were prepared in methanol at 660, 264, 106, 42, 17, 6.8, 2.7, 1.1 and 0.43 μM. NADPH cofactor was prepared with Glucose-6-phosphate (7.8 mg), Glucose-6-phosphate dehydrogenase (6 units), NADP (1.7 mg) per 1 mL in NaHCO3 2%. Substrate preparation was as follows: • 7-Methoxy-4-triFluoromethyl Coumarin-3-Acetic acid ethyl ester (FCA): 12.5 mM in acetonitrile • EthoxyResorufin (ER): 0.05 mM in acetonitrile • 4-MethylaminoMethyl-7-Methoxy Coumarin (MMC): 2.5 mM in methanol • 3-Butyryl-7Methoxy Coumarin (BMC): 2.5 mM in DMSO • 7-BenzyloxyQuinoline (7BQ): 2.5 mM in acetonitrile • DiEthoxyFluorescein (DEF): 0.1 mM in acetonitrile Bactosomes (Cypex source) at the concentration of 10 mg of protein per ml were diluted in phosphate buffer 50 mM pH7.4: • 0.33 ml of bactosomes CYP2C9 with 23.8 ml of buffer and 0.11 ml of FCA • 0.33 ml of bactosomes CYP1A2 with 23.6 ml of buffer and 0.275 ml of ER • 0.33 ml of bactosomes CYP2D6 with 23.8 ml of buffer and 0.11 ml of MMC • 0.33 ml of bactosomes CYP2C19 with 23.8 ml of buffer and 0.11 ml of BMC • 0.33 ml of bactosomes CYP3[…] with 23.6 ml of buffer and 0.275 ml of 7BQ • 0.33 ml of bactosomes CYP3[…] with 23.6 ml of buffer and 0.275 ml of DEF Pre-Incubation consisted in mixing 5 μl of compound solution with 220 μl diluted bactosomes and warming it at 37° C. for 10 min. Incubation was started with the addition of 25 μl of NADPH. […]
# [5] = molecular target: T3, CYP2D6 (Homo sapiens, UniProt P10635); test: Cytochrome p450 inhibition assay (bactosomes, fluorogenic substrate MMC); assay type: biochemical; settings: recombinant human CYP (Cypex bactosomes)
# T3 construct: purchased Cypex; host or cells: bactosomes (bacterial membranes)
# T3 sequence (P10635 whole entry): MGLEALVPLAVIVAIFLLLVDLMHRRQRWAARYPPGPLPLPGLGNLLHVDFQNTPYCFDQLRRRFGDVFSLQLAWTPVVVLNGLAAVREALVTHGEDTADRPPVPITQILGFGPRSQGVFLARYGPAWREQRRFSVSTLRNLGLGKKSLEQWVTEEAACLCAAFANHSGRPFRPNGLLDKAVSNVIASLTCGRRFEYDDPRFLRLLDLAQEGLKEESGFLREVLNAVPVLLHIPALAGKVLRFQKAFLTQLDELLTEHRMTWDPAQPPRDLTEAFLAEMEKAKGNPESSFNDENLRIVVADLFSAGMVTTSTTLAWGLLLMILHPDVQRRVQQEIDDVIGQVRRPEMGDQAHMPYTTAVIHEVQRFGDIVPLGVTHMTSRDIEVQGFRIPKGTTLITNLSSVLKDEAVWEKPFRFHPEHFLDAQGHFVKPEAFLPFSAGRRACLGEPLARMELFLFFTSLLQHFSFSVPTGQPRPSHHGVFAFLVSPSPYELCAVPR
# Procedure: as §1
# [6] = molecular target: T4, CYP2C19 (Homo sapiens, UniProt P33261); test: Cytochrome p450 inhibition assay (bactosomes, fluorogenic substrate BMC); assay type: biochemical; settings: recombinant human CYP (Cypex bactosomes)
# T4 construct: purchased Cypex; host or cells: bactosomes (bacterial membranes)
# T4 sequence (P33261 whole entry): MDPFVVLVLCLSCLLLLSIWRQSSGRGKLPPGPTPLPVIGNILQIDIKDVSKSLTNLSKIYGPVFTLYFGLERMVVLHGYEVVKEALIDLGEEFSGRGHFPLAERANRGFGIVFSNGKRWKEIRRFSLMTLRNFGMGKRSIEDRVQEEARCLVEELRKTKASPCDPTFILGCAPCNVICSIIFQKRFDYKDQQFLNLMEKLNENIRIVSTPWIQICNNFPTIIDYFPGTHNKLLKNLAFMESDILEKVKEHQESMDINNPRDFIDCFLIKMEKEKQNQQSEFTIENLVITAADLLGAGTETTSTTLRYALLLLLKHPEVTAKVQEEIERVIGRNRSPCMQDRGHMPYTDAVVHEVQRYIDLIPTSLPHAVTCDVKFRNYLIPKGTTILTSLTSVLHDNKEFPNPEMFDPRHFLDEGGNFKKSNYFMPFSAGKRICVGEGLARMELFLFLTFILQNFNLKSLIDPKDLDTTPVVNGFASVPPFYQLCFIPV
# Procedure: as §1
# [7] = molecular target: T5, CYP1A2 (Homo sapiens, UniProt P05177); test: Cytochrome p450 inhibition assay (bactosomes, fluorogenic substrate ER); assay type: biochemical; settings: recombinant human CYP (Cypex bactosomes)
# T5 construct: purchased Cypex; host or cells: bactosomes (bacterial membranes)
# T5 sequence (P05177 1-516): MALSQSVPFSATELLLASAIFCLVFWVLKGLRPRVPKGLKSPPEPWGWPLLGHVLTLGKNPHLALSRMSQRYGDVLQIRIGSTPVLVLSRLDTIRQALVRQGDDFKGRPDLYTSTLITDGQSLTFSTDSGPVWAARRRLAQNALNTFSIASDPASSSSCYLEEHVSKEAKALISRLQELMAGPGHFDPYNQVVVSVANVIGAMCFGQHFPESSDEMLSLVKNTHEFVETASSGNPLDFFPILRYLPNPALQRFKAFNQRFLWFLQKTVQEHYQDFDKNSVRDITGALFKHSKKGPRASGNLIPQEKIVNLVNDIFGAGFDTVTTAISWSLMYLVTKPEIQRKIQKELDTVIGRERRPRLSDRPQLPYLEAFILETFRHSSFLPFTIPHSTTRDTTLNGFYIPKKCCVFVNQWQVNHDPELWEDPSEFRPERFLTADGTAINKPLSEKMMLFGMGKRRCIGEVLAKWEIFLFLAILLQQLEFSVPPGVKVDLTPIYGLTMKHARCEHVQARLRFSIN
# Procedure: as §1
# [8] = molecular target: T6, CYP3A4 (Homo sapiens, UniProt P08684); test: Cytochrome p450 inhibition assay (bactosomes, fluorogenic substrates 7BQ and DEF); assay type: biochemical; settings: recombinant human CYP (Cypex bactosomes)
# T6 construct: purchased Cypex; host or cells: bactosomes (bacterial membranes)
# T6 sequence (P08684 whole entry): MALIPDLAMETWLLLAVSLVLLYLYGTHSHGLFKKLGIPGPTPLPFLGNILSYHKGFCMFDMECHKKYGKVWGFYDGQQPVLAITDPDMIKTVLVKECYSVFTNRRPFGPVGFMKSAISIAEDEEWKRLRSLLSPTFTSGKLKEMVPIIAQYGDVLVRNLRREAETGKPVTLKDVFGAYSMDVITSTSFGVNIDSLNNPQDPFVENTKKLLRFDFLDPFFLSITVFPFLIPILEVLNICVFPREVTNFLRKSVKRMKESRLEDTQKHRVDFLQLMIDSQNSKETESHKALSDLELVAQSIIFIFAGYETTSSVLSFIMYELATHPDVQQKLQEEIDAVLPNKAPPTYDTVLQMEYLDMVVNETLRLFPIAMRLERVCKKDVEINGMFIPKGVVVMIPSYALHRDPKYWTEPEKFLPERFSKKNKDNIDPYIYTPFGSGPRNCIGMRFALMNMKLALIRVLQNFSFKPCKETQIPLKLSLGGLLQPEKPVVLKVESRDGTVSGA
# Procedure: The assay was designed to evaluate inhibition on cytochrome P450 (CYP) 3A4, 2C9, 2C19, 1A2 and 2D6 enzymes from bactosomes source using fluorogenic substrates. Compound (compound of Formula (I) or Comparator Compound) was dissolved in methanol at 1.65 mM. Daughter solutions were prepared in methanol at 660, 264, 106, 42, 17, 6.8, 2.7, 1.1 and 0.43 μM. NADPH cofactor was prepared with Glucose-6-phosphate (7.8 mg), Glucose-6-phosphate dehydrogenase (6 units), NADP (1.7 mg) per 1 mL in NaHCO3 2%. Substrate preparation was as follows: • 7-Methoxy-4-triFluoromethyl Coumarin-3-Acetic acid ethyl ester (FCA): 12.5 mM in acetonitrile • EthoxyResorufin (ER): 0.05 mM in acetonitrile • 4-MethylaminoMethyl-7-Methoxy Coumarin (MMC): 2.5 mM in methanol • 3-Butyryl-7Methoxy Coumarin (BMC): 2.5 mM in DMSO • 7-BenzyloxyQuinoline (7BQ): 2.5 mM in acetonitrile • DiEthoxyFluorescein (DEF): 0.1 mM in acetonitrile Bactosomes (Cypex source) at the concentration of 10 mg of protein per ml were diluted in phosphate buffer 50 mM pH7.4: • 0.33 ml of bactosomes CYP2C9 with 23.8 ml of buffer and 0.11 ml of FCA • 0.33 ml of bactosomes CYP1A2 with 23.6 ml of buffer and 0.275 ml of ER • 0.33 ml of bactosomes CYP2D6 with 23.8 ml of buffer and 0.11 ml of MMC • 0.33 ml of bactosomes CYP2C19 with 23.8 ml of buffer and 0.11 ml of BMC • 0.33 ml of bactosomes CYP3[…] with 23.6 ml of buffer and 0.275 ml of 7BQ • 0.33 ml of bactosomes CYP3[…] with 23.6 ml of buffer and 0.275 ml of DEF Pre-Incubation consisted in mixing 5 μl of compound solution with 220 μl diluted bactosomes and warming it at 37° C. for 10 min. Incubation was started with the addition of 25 μl of NADPH. Then fluorescence of substrate metabolite was read in a SAFIRE instrument (from Tecan) for 5 min: • FCA (2C9): Excitation at 410 nm and Emission at 510 nm • ER (1A2): Excitation at 530 nm and Emission at 590 nm • MMC (2D6): Excitation at 410 nm and Emission at 485 nm • BMC (2C19): Excitation at 410 nm and Emission at 465 nm • 7BQ (3A4H): Excitation at 410 nm and Emission at 530 nm • DEF (3A4L): Excitation at 485 nm and Emission at 530 nm Plotting of inhibition of substrate production against compound concentration allowed the determination of IC50 values.
IC50 [4],IC50 [5],IC50 [6],IC50 [7],IC50 CYP3A4 (7BQ) ([8]; substrate 7BQ),"IC50 ([8]; substrate 7BQ, read-out: IC50 CYP3A4 (7BQ))",IC50 CYP3A4 (DEF) ([8]; substrate DEF),"IC50 ([8]; substrate DEF, read-out: IC50 CYP3A4 (DEF))",Structure (SMILES),Depletion of circulating SAP [1],CSF SAP concentration after depletion ([2]; from 2-30 μg/L),Plasma SAP after depletion ([2]; from the normal 20-50 mg/L),Oral bioavailability [3]
,,,,,,,,"O=C(O)[C@H]1CCCN1C(=O)CCCCC(=O)N1CCC[C@@H]1C(=O)O [CPHPC, (R)-1-[6-[(R)-2-carboxy-pyrrolidin-1-yl]-6-oxo-hexanoyl]pyrrolidine-2-carboxylic acid]",almost complete depletion,< 0.1 µg/L,< 0.1 mg/L,3-5%
26 µM,> 33 µM,> 33 µM,> 33 µM,significant inhibition,5.5 µM,significant inhibition,1.1 µM,"CC(OC(=O)[C@H]1CCCN1C(=O)CCCCC(=O)N1CCC[C@@H]1C(=O)OC(C)OC(=O)C(C)(C)C)OC(=O)C(C)(C)C (stereo partly drawn) [Comparator Compound, (2R,2′R)-bis(1-(pivaloyloxy)ethyl) 1,1′-adipoylbis(pyrrolidine-2-carboxylate), reference compound]",,,,
